Assays:
BT-549 = assay: NCI60 screening, Breast Cancer, BT-549; type: cell-based, human
PC-3 xenograft tumor = PC-3 xenograft tumor growth in nude mice, 450 ppm in the diet; type: in vivo; conditions: 450 ppm in AIN-76A rodent diet, vs control diet, P<0.05
Procedure: FIG. 3 provides a graph showing the in vivo efficacy of dietary OSU-A9M at 450 ppm in a rodent diet in suppressing PC-3 xenograft tumor growth in nude mice.
Given the increased potency of OSU-A9M compared to the other lead derivatives, an experimental diet was formulated. An AIN-76A rodent diet (American Institute of Nutrition; including primarily casein, sucrose, and corn starch) containing 450 ppm OSU-A9M was made to deliver approximately 50 mg/kg of drug per day to each mouse estimated by food consumption and body weight measurements.

HOP-92 = assay: NCI60 screening, Non-Small Cell Lung Cancer, HOP-92; type: cell-based, human
RXF 393 = assay: NCI60 screening, Renal Cancer, RXF 393; type: cell-based, human
[1] = Homo sapiens, read-out: LC50 (the source's name)

SMILES: Cc1ccc2c(c1)c(CO)cn2S(=O)(=O)c1ccc(Cl)c([N+](=O)[O-])c1 [OSU-A9M, [1-(4-chloro-3-nitro-benzenesulfonyl)-5-methyl-1H-indol-3-yl]-methanol]
- TGI (BT-549): 3.13E−6
- GI50 (BT-549; Homo sapiens): 1.67 µM
- CC50 (BT-549; [1]): 5.89 µM
- Percent Growth (BT-549; Log10 Concentration −4.0): −92%
- Percent Growth (BT-549; Log10 Concentration −5.0): −92%
- Percent Growth (BT-549; Log10 Concentration −6.0): 91%
- Percent Growth (BT-549; Log10 Concentration −7.0): 87%
- Percent Growth (BT-549; Log10 Concentration −8.0): 85%
- Suppression of the growth of PC-3 xenograft tumors (PC-3 xenograft tumor): 59.6%
- TGI (HOP-92): 2.67E−6
- GI50 (HOP-92; Homo sapiens): 1.31 µM
- CC50 (HOP-92; [1]): 5.43 µM
- Percent Growth (HOP-92; Log10 Concentration −4.0): −97%
- Percent Growth (HOP-92; Log10 Concentration −5.0): −93%
- Percent Growth (HOP-92; Log10 Concentration −6.0): 69%
- Percent Growth (HOP-92; Log10 Concentration −7.0): 76%
- Percent Growth (HOP-92; Log10 Concentration −8.0): 92%
- TGI (RXF 393): 4.10E−6
- GI50 (RXF 393; Homo sapiens): 1.94 µM
- CC50 (RXF 393; [1]): 8.65 µM
- Percent Growth (RXF 393; Log10 Concentration −4.0): −85%
- Percent Growth (RXF 393; Log10 Concentration −5.0): −60%
- Percent Growth (RXF 393; Log10 Concentration −6.0): 94%
- Percent Growth (RXF 393; Log10 Concentration −7.0): 102%
- Percent Growth (RXF 393; Log10 Concentration −8.0): 101%
